Measurements: patent US20240287079A1, “6-AMINOPYRAZOLOPYRIMIDINE COMPOUND AND PHARMACEUTICAL USE THEREOF” (Japan Tobacco Inc., priority 2021, published 2024)
pIC50: −log10 of the molar value.

Target: NLRP3 inflammasome (Homo sapiens (Human), UniProt Q96P20)
Assay: Evaluation of NLRP3 inflammasome inhibitory activity (inhibition of IL-1β production in LPS/Nigericin-stimulated THP1-Null cells)
Assay type: cell-based
Conditions: IL-1β production in THP1-Null cells, PMA, LPS 1 μg/mL, Nigericin 7.5 μmol/L, AlphaLISA
How it was run: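 THP1-Null cells primed with 1 μg/mL LPS, then treated with test compound; supernatant IL-1β quantified by AlphaLISA. Inhibition calculated with blank wells as 100% and control wells as 0%.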

NLRP3 inflammasome, sequence (Q96P20 whole entry): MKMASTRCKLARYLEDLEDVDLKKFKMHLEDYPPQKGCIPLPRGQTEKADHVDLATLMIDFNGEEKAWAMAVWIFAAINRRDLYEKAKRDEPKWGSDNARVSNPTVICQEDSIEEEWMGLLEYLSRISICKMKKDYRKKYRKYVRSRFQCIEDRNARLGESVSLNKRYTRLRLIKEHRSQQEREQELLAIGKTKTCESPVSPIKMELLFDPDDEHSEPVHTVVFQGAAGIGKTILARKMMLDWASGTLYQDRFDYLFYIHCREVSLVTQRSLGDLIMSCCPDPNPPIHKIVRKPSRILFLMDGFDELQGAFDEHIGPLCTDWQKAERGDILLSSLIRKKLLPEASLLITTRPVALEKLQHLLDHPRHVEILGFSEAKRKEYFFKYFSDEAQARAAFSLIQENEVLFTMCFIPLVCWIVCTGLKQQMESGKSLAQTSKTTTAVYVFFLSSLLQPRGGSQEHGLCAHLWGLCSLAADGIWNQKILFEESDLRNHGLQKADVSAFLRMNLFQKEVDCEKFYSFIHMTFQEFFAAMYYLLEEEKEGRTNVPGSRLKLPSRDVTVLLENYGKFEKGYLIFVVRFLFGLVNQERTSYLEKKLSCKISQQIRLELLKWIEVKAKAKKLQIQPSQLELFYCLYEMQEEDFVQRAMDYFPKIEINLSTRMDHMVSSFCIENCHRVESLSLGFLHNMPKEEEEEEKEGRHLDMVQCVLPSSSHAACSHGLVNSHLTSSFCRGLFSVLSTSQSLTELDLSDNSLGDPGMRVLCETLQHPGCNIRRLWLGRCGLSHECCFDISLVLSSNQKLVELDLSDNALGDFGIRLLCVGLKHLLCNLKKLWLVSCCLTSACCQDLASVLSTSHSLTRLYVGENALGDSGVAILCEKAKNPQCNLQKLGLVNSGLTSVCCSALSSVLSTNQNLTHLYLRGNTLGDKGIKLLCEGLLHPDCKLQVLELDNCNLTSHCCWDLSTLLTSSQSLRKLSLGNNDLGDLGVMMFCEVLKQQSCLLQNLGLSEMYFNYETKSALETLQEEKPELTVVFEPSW

Q: With `O=c1[nH]c(N2CCOCCO2)nc2nn(-c3ccc(C4CC4)cc3C(F)(F)F)cc12` [Example 356] as the molecule, how does the pIC50 read?
A: 7.64

Q: With `Cc1cc(C(F)(F)F)cc(C)c1-n1cc2c(=O)[nH]c(N3CCOCCO3)nc2n1` [Example 357] as the molecule, how does the pIC50 read?
A: 7.55

Q: `Cc1cc(CC(F)F)cc(C)c1-n1cc2c(=O)[nH]c(N3CCOCCO3)nc2n1` [Example 358] was tested. Which pIC50 did it give?
A: 6.10

Q: How did the pIC50 turn out when `Cc1cc(Br)cc(C)c1-n1cc2c(=O)[nH]c(NCCOCCO)nc2n1` [Example 360] was run?
A: 8.21

Q: How did the pIC50 turn out when `Cc1cc(Br)cc(C)c1-n1cc2c(=O)[nH]c(N(CCO)CCO)nc2n1` [Example 361] was run?
A: 7.89

Q: How did the pIC50 turn out when `Cc1cc(Br)cc(C)c1-n1cc2c(=O)[nH]c(N3C=COCC3)nc2n1` [Example 362] was run?
A: 8.59

Same assay, conditions: IL-1β production in THP1-Null cells; test compound 0.0024 μM

Q: How did the inhibition at 0.0024 µM turn out when `Cc1cc(Br)cc(C)c1-n1cc2c(=O)[nH]c(NCCO)nc2n1` [Example 359] was run?
A: 69%
